Measured values as given in patent US11072637B2, “Walnut oligopeptide powder, preparation method and application thereof” (Sinphar Tian-Li (Hangzhou) Pharmacy Company Limited, priority 2016, dated 2021).
Values joined by “and” are separate entries in the source; they are usually repeats but may differ in a detail not shown here. Equal entries are not always repeated. Non-standard residues stand in square brackets, D forms with d. Residues, ends and D or L forms follow the SMILES beside them. pGlu = O=C1CC[C@@H](C(=O)O)N1; Thz = O=C(O)[C@@H]1CSCN1

What was measured:
[1] = system: Sodium Nitrite-Induced Memory Consolidation Disorder of Mice; assay: Sodium nitrite-induced memory consolidation disorder of mice (jumping table); format: in vivo, ICR mouse; settings: sodium nitrite model, 30 mg/kg
Procedure: (§1) The test animal was a cleaning-grade ICR mouse with 18-22 g in weight, the three batches of 300 were provided by Nantong University. Laboratory animal production license is SCXK (Su) 2014-0001, fed by conventional mouse feedstuff, and free drinking water. Before the experiment they were fed in a quiet environment for 1 week, freely-feeding and drinking water, and keeping the room temperature (22±1° C.) and natural day and night rhythm illumination. The mouse was randomly grouped and low, medium and high dosage groups (30, 100 and 300 mg/kg) of walnut oligopeptide (preparation example 1) was provided, the blank group and the model group were given equal-volume distilled water respectively, and 30 mg/kg of nimodipine was administrated in positive control group, respectively filling the stomach for one time every day in each group, and continuously feeding the medicines for 7 days. Jump-table training. […] During testing, the mouse were placed on the jumping table, and time was counted at the same time. The first jumping time of the mouse was recorded, and it was an electric shock incubation period (namely, an error incubation period) and recording the times of jumping within 5 minutes (i.e., the times of errors), was recorded as observation index. […]

[2] = system: Scopolamine-Induced Memory Acquisition Impairment of the Mice; assay: Scopolamine-induced memory acquisition impairment of mice (jumping table); format: in vivo, ICR mouse; settings: scopolamine model, 30 mg/kg
Procedure: 1. Test Animal The test animal was a cleaning-grade ICR mouse with 18-22 g in weight, the three batches of 300 were provided by Nantong University. Laboratory animal production license is SCXK (Su) 2014-0001, fed by conventional mouse feedstuff, and free drinking water. Before the experiment they were fed in a quiet environment for 1 week, freely-feeding and drinking water, and keeping the room temperature (22±1° C.) and natural day and night rhythm illumination. 2.1 Influence on Scopolamine-Induced Memory Acquisition Impairment of Mouse The mouse was randomly grouped and low, medium and high dosage groups (30, 100 and 300 mg/kg) of walnut oligopeptide (preparation example 1) was provided, the blank group and the model group were given equal-volume distilled water respectively, and 30 mg/kg of nimodipine was administrated in positive control group, respectively filling the stomach for one time every day in each group, and continuously feeding the medicines for 7 days. Jump-table training. […] During testing, the mouse were placed on the jumping table, and time was counted at the same time. The first jumping time of the mouse was recorded, and it was an electric shock incubation period (namely, an error incubation period) and recording the times of jumping within 5 minutes (i.e., the times of errors), was recorded as observation index.

[3] = system: 40% Ethanol-Induced Memory Reproduction Disorder of Mice; assay: 40% ethanol-induced memory reproduction disorder of mice (jumping table); format: in vivo, ICR mouse; settings: 40% ethanol model, 30 mg/kg
Procedure: as §1

[4] = system: central nervous system of zebra fishes; assay: Protection of zebra fish central nervous system (mycophenolate-induced injury); format: in vivo; settings: 154 μg/mL
Procedure: Protection Effect of the Walnut Oligopeptide Powder on the Central Nervous Centrum of Zebra Fishes 180 wild type AB strain zebra fishes after fertilization in […] (1 dpf) were selected randomly and were arranged in six-well plate, and 30 tail zebra fishes were treated in each hole (the experiment group), and central injury of the zebra fishes was induced by the mycophenolate mophol ester. […] After the oligopeptide was subjected to co-treatment for 24 hours with the mycophenolate, the acridine orange was used for dyeing, after dyeing, 10 tail zebra fishes from each experimental group were selected randomly to photograph under fluorescence microscope and collect data, analyzing and counting the fluorescent intensity of the apoptotic cells of central nervous system (brain and spinal cord) of the zebra fishes; the protective effect of the walnut oligopeptide powder on the central nervous system of zebra fishes was evaluated according to the fluorescence intensity.

zebra fish macrophages [5] = assay: Promotion of phagocytosis function of zebra fish macrophages (ink model); format: in vivo; settings: 200 μg/mL
Procedure: 2. Promotion Effect of Walnut Oligopeptide Powder on Phagocytosis Function of Zebra Fish Macrophages
Zebra fish macrophage promoting model inhibition model was built by intravenous injection of ink in 2 days (2 dpf) zebra fishes after fertilization. respectively dissolved in fish water to give the walnut oligopeptide and the positive drug pidotimod, […], and the concentration of the pidotimod is 200 […]. Meanwhile, model control group and normal control group were set, in which 30 tail zebra fishes are in each experimental group, and each group was placed in a 28 L incubator to be cultured. When processing to 3 dpf, the zebra fishes in each experiment group were subjected to neutral red staining, after dyeing for 4 hours, 10-tail zebra fishes from each experimental group were selected to be observed under microscope randomly, and photos were taken and stored; image analysis for the ink signal of the zebra fish macrophages was carried out by image processing software. The improvement effect of four test samples on phagocytosis function of the zebra fish macrophages was quantitatively evaluated.

zebra fish macrophages [6] = assay: Improvement of zebra fish macrophage inhibition (vinorelbine model); format: in vivo; settings: for number of macrophages of the zebra fish head, Mean ± SD(count): 1.9 μg/mL in fish water, model control 15, normal control 27, n = 10
Procedure: Improvement Effect of Walnut Oligopeptide Powder on Inhibition of Zebra Fish Macrophages […] Meanwhile, model control group and normal control group were set (no treatment was carried out), in which 30 tail zebra fishes were in each experimental group, and each group was placed in a 28 L incubator to be cultured. When processing to 3 dpf, the zebra fishes in each experiment group were subjected to neutral red staining. After dyeing for 4 hours, 10-tail zebra fishes from each experimental group were selected to be observed under microscope randomly, and photos were taken and stored. Image analysis for the number of the zebra fish macrophages was carried out by image processing software. The improvement effect of the walnut oligopeptide powder on inhibition of the zebra fish macrophage was quantitatively evaluated.

H2O2 induced PC12 cell = assay: Protection of PC12 cells against hydrogen peroxide damage (MTT); format: cell-based; settings: 80 μg/ml, 6 hours pre-culture, then 100 μM H2O2 12 hours; model group 57.2
Procedure: PC12 nerve cell protection model: This is a good model for studying nerve cell physiology, pathology and pharmacology, and also a most common in-vitro drug screening model for studying Parkinson's disease and neuro-fatigue.
PC12 cells were cultured by using a high-sugar DMEM culture medium containing 10% fetal calf serum, and digesting for about 50 seconds by using 0.25% of pancreatin during cell passage, stopping digestion by using a DMEM culture medium containing 10% serum, and adding fresh culture medium to blow the cells uniformly. Cell density passage of 10^5/ml was carried out. 4 ml of culture solution containing cells was added to each bottle of cells, culturing under the conditions of 37° C. and 5% CO2. […]
The 96-well plate was respectively given to 100 μL of the walnut oligopeptide by a certain concentration gradient in each hole, after culturing for 24 hours, the cell vitality was detected by MTT method. […] The cell activity of the model group and the drug delivery group was calculated by taking the average value of the OD value of the control group as 100% of the cell activity. […]
The above groups were cultured under the same conditions, and then subsequent experiments were carried out. The cell activity was detected by MTT method in 96-well plates.

## COCCOC(=O)C1=C(C)NC(C)=C(C(=O)OC(C)C)C1c1cccc([N+](=O)[O-])c1 (centres unmarked) [Nimodipine, nimodipine]
[1]; gavage once daily 7 days, n = 10, model 94.7
  Incubation Period: 237.7 ± 79.7 s
[1]; within 5 minutes, model 3.6
  Times of Error (n): 1.0 ± 1.2 n
[2]; gavage once daily 7 days, n = 10, model 14.6
  Incubation Period: 35.9 ± 30.3 s
[2]; within 5 minutes, model 3.5
  Times of Error (n): 2.0 ± 1.4 n
[3]; gavage once daily 7 days, n = 8, model 46.3
  Incubation Period: 99.6 ± 98.7 s
[3]; within 5 minutes, model 5.7
  Times of Error (n): 2.5 ± 1.4 n

## N[C@@H](CCC(=O)N[C@@H](CS)C(=O)NCC(=O)O)C(=O)O [GSH, glutathione]
[4]
  Protection Effect on Central Nervous System (%): 92%
[4]; 24 hours co-treatment with mycophenolate, model 565783, normal 161976
  fluorescence intensity of central apoptosis cell (pixel)(mean ± SE): 190000 pixel and 193900 ± 8302 pixel

## O=C1CC[C@@H](C(=O)N2CSC[C@H]2C(=O)O)N1 [pidotimod] ([pGlu]-[Thz]-OH)
Zebra fish macrophages [5]; compared with model control group
  Promotion Effect (time): 2.3 time
Zebra fish macrophages [5]; model control 1.5, n = 10
  number of macrophages of the phagocytosis ink, Mean ± SD(count): 3.5 count and 3.5 ± 1.8 count

## COc1ccc2cc3[n+](cc2c1OC)CCc1cc2c(cc1-3)OCO2 [Berberine, berberine]
Zebra fish macrophages [6]
  number of macrophages of the zebra fish head, Mean ± SD(count): 20 ± 4 count
Zebra fish macrophages [6]; listed as berberine
  number of macrophages of the zebra fish head, Mean ± SD(count): 20 count
Zebra fish macrophages [6]; 1.9 μg/mL, compared with model control group
  Improvement Effect (%): 41.67%

## CC(=O)N[C@@H](CS)C(=O)O [Positive group, NAC]
H2O2 induced PC12 cell
  Cell activity(%): 88.0%
